Molecular target: T1, Chi3l1 (chitinase 3-like 1, YKL-40) (Mus musculus, UniProt Q61362)
T1 construct: recombinant mouse Chi3l1 (rChi3l1), labelled with His-Tag Labeling Kit RED-tris-NTA
Assay: microscale thermophoresis (MST); supported by biotin-glucose pull-down competed by unlabeled glucose
Type: binding

T1 sequence (Q61362 30-389): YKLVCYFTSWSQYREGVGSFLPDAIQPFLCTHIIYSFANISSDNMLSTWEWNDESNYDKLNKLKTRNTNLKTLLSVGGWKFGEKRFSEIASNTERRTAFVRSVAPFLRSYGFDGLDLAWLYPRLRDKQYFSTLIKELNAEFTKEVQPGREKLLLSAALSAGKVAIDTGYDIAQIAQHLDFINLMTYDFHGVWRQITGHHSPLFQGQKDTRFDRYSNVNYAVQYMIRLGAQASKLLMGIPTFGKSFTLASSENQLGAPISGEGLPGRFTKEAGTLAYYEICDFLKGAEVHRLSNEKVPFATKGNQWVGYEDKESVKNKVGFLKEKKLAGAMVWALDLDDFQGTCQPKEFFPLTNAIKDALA

`OC[C@H]1OC(O)[C@H](O)[C@@H](O)[C@@H]1O` (stereo partly shown) [glucose] showed a Kd of 4.95 mM.
